The text below walks through data of patent publication US20220079934A1, “CRENOLANIB FOR TREATING PAIN” (Arog Pharmaceuticals, Inc., priority 2020, published 2022).

Data set [1] has as its target T1, wildtype TRKA (Homo sapiens, UniProt P04629).
T1 construct: purchased Reaction Biology
Kind of data set: Reaction Biology HotSpot Kinase assay (direct enzyme phosphorylation), TRKA. The data set is classed as biochemical. The conditions noted are these: 33P-ATP, 120 minutes at room temperature, filter-binding. As for the experimental part: (§1) Direct enzyme phosphorylation assay. The Reaction Biology HotSpot Kinase assay was used to screen the present invention against a panel of TRKA, TRKB, and TRKC kinases. For assays of all kinases, the TRK enzyme was prepared in base reaction buffer (20 mM Hepes (pH 7.5), 10 mM MgCl2, 1 mM EGTA, 0.02% Brij35, 0.02 mg/ml BSA, 0.1 mM Na3VO4, 2 mM DTT, 1% DMSO). The reaction was initiated by the addition of 33P-ATP (10 μCi/μL) into the mixture. The reaction mixture was incubated for 120 minutes at room temperature. Radioactivity was detected by filter-binding method, and kinase activity expressed as the percent remaining kinase activity in test samples compared to vehicle reactions. IC50 values and curve fitting were obtained using Prism (GraphPad Software). The activity of the besylate salt of the present invention was determined using a direct enzymatic Reaction Biology HotSpot Kinase assay. All IC50 values are presented in nanomolar concentration. In the direct enzymatic measurement assay, the IC50 of the besylate salt of the current invention against the various TRK kinases is shown in Table 1.

Data set [2] addresses T2, wildtype TRKB (Homo sapiens, UniProt Q16620).
T2 construct: purchased Reaction Biology
Kind of data set: Reaction Biology HotSpot Kinase assay (direct enzyme phosphorylation), TRKB. The conditions noted are these: 33P-ATP, 120 minutes at room temperature, filter-binding. The data set is classed as biochemical. As for the experimental part:
as §1

In data set [3] the target is T3, wildtype TRKC (Homo sapiens, UniProt Q16288).
T3 construct: purchased Reaction Biology
T3 sequence (Q16288 32-839): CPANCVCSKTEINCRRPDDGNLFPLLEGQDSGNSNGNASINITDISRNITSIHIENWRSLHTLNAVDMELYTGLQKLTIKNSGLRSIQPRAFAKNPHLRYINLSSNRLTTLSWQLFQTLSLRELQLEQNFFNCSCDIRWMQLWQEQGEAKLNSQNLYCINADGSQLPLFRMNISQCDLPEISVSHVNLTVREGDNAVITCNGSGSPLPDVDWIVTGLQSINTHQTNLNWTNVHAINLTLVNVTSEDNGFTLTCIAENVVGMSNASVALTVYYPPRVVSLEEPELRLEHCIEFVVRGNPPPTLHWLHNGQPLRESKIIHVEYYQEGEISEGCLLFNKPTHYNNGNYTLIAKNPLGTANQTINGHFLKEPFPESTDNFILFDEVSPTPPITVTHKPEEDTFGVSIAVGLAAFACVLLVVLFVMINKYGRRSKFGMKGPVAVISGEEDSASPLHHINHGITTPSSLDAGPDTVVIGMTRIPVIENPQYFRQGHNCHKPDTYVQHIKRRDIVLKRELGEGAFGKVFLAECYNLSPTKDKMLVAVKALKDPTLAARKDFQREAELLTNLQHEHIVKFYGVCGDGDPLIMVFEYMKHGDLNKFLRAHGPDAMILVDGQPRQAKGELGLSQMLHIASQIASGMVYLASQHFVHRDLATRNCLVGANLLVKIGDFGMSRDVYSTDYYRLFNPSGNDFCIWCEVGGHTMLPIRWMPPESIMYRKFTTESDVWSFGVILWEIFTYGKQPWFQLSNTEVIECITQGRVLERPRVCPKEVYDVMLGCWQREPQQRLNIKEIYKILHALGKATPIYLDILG
Briefly: Reaction Biology HotSpot Kinase assay (direct enzyme phosphorylation), TRKC. The data set is classed as biochemical. The conditions noted are these: 33P-ATP, 120 minutes at room temperature, filter-binding. As for the experimental part: as §1

For data set [4] the following is noted: osteoarthritis patients, lowered dose with risk minimization strategy; 22 patients; cited from earlier work.

T1 sequence (P04629 33-796): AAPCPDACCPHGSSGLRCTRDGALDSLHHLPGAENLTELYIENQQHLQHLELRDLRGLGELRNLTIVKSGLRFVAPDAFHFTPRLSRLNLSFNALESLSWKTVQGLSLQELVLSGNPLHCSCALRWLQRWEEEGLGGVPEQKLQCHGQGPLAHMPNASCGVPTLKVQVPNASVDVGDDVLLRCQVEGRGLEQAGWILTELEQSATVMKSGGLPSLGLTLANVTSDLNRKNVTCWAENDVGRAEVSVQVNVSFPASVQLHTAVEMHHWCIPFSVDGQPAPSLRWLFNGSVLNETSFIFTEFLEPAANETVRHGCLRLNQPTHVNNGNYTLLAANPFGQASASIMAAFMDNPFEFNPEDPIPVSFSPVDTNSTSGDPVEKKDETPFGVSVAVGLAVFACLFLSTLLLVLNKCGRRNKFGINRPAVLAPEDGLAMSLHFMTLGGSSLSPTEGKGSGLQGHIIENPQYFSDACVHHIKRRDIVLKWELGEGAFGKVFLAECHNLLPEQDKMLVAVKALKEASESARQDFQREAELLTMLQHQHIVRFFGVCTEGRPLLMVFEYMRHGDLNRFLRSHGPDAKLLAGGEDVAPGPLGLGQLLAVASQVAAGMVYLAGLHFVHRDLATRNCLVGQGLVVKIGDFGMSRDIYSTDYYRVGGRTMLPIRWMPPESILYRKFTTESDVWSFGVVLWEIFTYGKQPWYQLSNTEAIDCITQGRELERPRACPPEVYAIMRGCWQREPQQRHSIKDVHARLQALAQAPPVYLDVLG
T2 sequence (Q16620 32-822): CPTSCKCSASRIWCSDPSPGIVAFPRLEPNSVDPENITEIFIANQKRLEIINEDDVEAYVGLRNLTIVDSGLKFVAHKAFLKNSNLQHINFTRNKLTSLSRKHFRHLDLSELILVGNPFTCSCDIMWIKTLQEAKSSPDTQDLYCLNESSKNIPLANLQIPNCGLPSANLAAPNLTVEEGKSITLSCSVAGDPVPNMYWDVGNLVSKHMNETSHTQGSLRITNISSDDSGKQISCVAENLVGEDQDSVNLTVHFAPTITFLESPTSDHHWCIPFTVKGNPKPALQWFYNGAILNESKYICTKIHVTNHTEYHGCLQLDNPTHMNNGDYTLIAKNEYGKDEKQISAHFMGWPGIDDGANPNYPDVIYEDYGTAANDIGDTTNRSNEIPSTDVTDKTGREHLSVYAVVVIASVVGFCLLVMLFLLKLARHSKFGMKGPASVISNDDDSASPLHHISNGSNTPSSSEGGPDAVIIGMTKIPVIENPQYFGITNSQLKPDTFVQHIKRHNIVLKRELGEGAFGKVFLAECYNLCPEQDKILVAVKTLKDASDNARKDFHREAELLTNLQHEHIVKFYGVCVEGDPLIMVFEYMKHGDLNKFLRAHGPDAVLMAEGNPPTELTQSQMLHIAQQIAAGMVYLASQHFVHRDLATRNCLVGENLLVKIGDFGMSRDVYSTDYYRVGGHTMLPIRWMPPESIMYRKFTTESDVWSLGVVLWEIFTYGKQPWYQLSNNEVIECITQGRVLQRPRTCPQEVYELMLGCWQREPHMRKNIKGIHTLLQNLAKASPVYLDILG

In the case of `CC1(COc2ccc3c(c2)ncn3-c2ccc3cccc(N4CCC(N)CC4)c3n2)COC1` [crenolanib besylate], the IC50 is 31 nM in data set [1], 77.7 nM in data set [2] and 1.68 nM in data set [3].

On to tanezumab, for which, in data set [4], the “patients treated who required knee or joint replacement” value was 9.4%.

For orientation: IC50 means the concentration at which inhibition is half-maximal. A lower IC50 goes with greater potency in that assay.
